Values joined by “and” are separate entries in the source; they are usually repeats but may differ in a detail not shown here. Equal values may be shown once. Toxic doses and inconclusive results are not listed. Rule as the data show it: active = T/C of 150% or more; inactive = T/C below 125%.
System: L1210 leukemia ip in BDF1 mice, survival T/C
Experiment: NCI In Vivo Anticancer Drug Screen. Data for tumor model L1210 Leukemia (intraperitoneal) in B6D2F1 (BDF1) mice
Conditions: endpoint: mean survival time, higher = longer survival
Method in brief: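 Antitumor effect is assessed in tumor-bearing animals. Survival in the compound arm is compared with a vehicle-dosed control arm and expressed as their quotient.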

[1] = dose: 100.0 mg/kg/injection, schedule: Q01DX001 (ip), vehicle: saline
[2] = dose: 200.0 mg/kg/injection, schedule: Q01DX001 (ip), vehicle: saline
[3] = dose: 400.0 mg/kg/injection, schedule: Q01DX001 (ip), vehicle: saline
[4] = dose: 100.0 mg/kg/injection, schedule: Q04DX002 (ip), vehicle: saline
[5] = dose: 200.0 mg/kg/injection, schedule: Q04DX002 (ip), vehicle: saline
[6] = dose: 100.0 mg/kg/injection, schedule: Q01DX009 (ip), vehicle: saline
[7] = dose: 100.0 mg/kg/injection, schedule: Q04DX003 (ip), vehicle: saline
[8] = dose: 200.0 mg/kg/injection, schedule: Q04DX003 (ip), vehicle: saline
[9] = dose: 400.0 mg/kg/injection, schedule: Q04DX003 (ip), vehicle: saline

Measured: T/C

N#Cc1ccc(CC(=O)c2ccccc2)cc1
inactive: dose: 50.0 mg/kg/injection, schedule: Q01DX001 (ip), vehicle: saline 101 % of control | [1] 97 % of control | [2] 101 % of control | [3] 95 % of control

CCCCN1C(=S)NC(C)(C)C=C1C
inactive: dose: 12.5 mg/kg/injection, schedule: Q04DX003 (ip), vehicle: saline with Tween-80 95 % of control | dose: 25.0 mg/kg/injection, schedule: Q04DX003 (ip), vehicle: saline with Tween-80 98 % of control | dose: 50.0 mg/kg/injection, schedule: Q04DX003 (ip), vehicle: saline with Tween-80 96 % of control

CN(CCc1cnc2nc(N)[nH]c(=O)c2n1)c1ccc(C(=O)O)cc1
inactive: dose: 75.0 mg/kg/injection, schedule: Q01DX001 (ip), vehicle: saline 90 % of control | dose: 150.0 mg/kg/injection, schedule: Q01DX001 (ip), vehicle: saline 95 % of control | dose: 300.0 mg/kg/injection, schedule: Q01DX001 (ip), vehicle: saline 94 % of control

CC(=O)OC1C(C[N+](=O)[O-])OC(n2cnc3c(NC(=O)c4ccccc4)ncnc32)C(OC(C)=O)C1OC(C)=O (configuration not stated)
inactive: dose: 50.0 mg/kg/injection, schedule: Q04DX002 (ip), vehicle: saline 102 % of control | [4] 100 % of control | [5] 121 % of control

CC(CN1CCN(CCOCCO)CC1)CN1c2ccccc2Sc2ccc(Cl)cc21 (configuration not stated)
inactive: dose: 0.09 mg/kg/injection, schedule: Q01DX009 (ip), vehicle: saline 114 % of control | dose: 0.39 mg/kg/injection, schedule: Q01DX009 (ip), vehicle: saline 94 % of control | dose: 0.78 mg/kg/injection, schedule: Q01DX009 (ip), vehicle: saline 96 % of control | dose: 0.78 mg/kg/injection, schedule: Q04DX003 (ip), vehicle: saline 108 % of control | dose: 1.56 mg/kg/injection, schedule: Q01DX009 (ip), vehicle: saline 114 % of control | dose: 1.56 mg/kg/injection, schedule: Q04DX003 (ip), vehicle: saline 110 % of control | dose: 3.12 mg/kg/injection, schedule: Q04DX003 (ip), vehicle: saline 106 % of control | dose: 6.25 mg/kg/injection, schedule: Q04DX003 (ip), vehicle: saline 105 % of control | dose: 12.5 mg/kg/injection, schedule: Q04DX003 (ip), vehicle: saline 111 % of control

Cc1nc2ncnc(NCc3ccc(Cl)cc3Cl)c2[nH]1
inactive: [1] 97 % of control | [2] 89 % of control | [3] 108 % of control

O=S(=O)(F)/C=C/c1ccccc1
inactive: dose: 15.0 mg/kg/injection, schedule: Q01DX015 (ip), vehicle: saline 96 % of control | dose: 30.0 mg/kg/injection, schedule: Q01DX015 (ip), vehicle: saline 96 % of control | dose: 60.0 mg/kg/injection, schedule: Q01DX015 (ip), vehicle: saline 100 % of control | dose: 120.0 mg/kg/injection, schedule: Q01DX015 (ip), vehicle: saline 96 % of control

CCCCOc1ccc(/C=N/NC(=O)CNC(=O)Nc2cccc([N+](=O)[O-])c2)cc1
inactive: dose: 50.0 mg/kg/injection, schedule: Q01DX009 (ip), vehicle: saline with Tween-80 96 % of control | dose: 100.0 mg/kg/injection, schedule: Q01DX009 (ip), vehicle: saline with Tween-80 96 % of control | dose: 200.0 mg/kg/injection, schedule: Q01DX009 (ip), vehicle: saline with Tween-80 93 % of control

Cc1ccc(S(=O)(=O)c2ccc(C)c([N+](=O)[O-])c2)cc1[N+](=O)[O-]
inactive: dose: 100.0 mg/kg/injection, schedule: Q01DX001 (ip), vehicle: Klucel (hydroxypropylcellulose) (HPC) 104 % of control | dose: 200.0 mg/kg/injection, schedule: Q01DX001 (ip), vehicle: Klucel (hydroxypropylcellulose) (HPC) 118 % of control | dose: 400.0 mg/kg/injection, schedule: Q01DX001 (ip), vehicle: Klucel (hydroxypropylcellulose) (HPC) 96 % of control

CC(=O)[O][Pb]([O]C(C)=O)([c]1ccccc1)[c]1ccccc1
inactive: dose: 100.0 mg/kg/injection, schedule: Q04DX002 (ip), vehicle: Klucel (hydroxypropylcellulose) (HPC) 98 % of control | dose: 100.0 mg/kg/injection, schedule: Q04DX002 (ip), vehicle: saline with Tween-80 102 % of control | dose: 200.0 mg/kg/injection, schedule: Q04DX002 (ip), vehicle: Klucel (hydroxypropylcellulose) (HPC) 102 % of control | dose: 200.0 mg/kg/injection, schedule: Q04DX002 (ip), vehicle: saline with Tween-80 102 % of control | dose: 400.0 mg/kg/injection, schedule: Q04DX002 (ip), vehicle: Klucel (hydroxypropylcellulose) (HPC) 105 % of control

CCNc1ncnc2c1cnn2C
inactive: [1] 95 % of control | [2] 103 % of control | [3] 114 % of control

CCOC(=O)CC(=O)CCc1ccccc1
inactive: [1] 104 % of control | [6] 94 % of control and 100 % of control | [4] 103 % of control and 105 % of control | [7] 113 % of control | [2] 104 % of control | dose: 200.0 mg/kg/injection, schedule: Q01DX009 (ip), vehicle: saline 94 % of control and 102 % of control | [5] 100 % of control and 108 % of control | [8] 106 % of control | [3] 103 % of control | dose: 400.0 mg/kg/injection, schedule: Q01DX009 (ip), vehicle: saline 92 % of control and 97 % of control | dose: 400.0 mg/kg/injection, schedule: Q04DX002 (ip), vehicle: saline 96 % of control and 102 % of control | [9] 105 % of control

Cc1nc(N)[nH]c(=O)c1CCCNc1ccc(CCC2(CCl)OCCO2)cc1
inactive: dose: 50.0 mg/kg/injection, schedule: Q01DX Z (ip), vehicle: carboxymethylcellulose (CMC) 98 % of control | dose: 100.0 mg/kg/injection, schedule: Q01DX Z (ip), vehicle: carboxymethylcellulose (CMC) 101 % of control | dose: 200.0 mg/kg/injection, schedule: Q01DX Z (ip), vehicle: carboxymethylcellulose (CMC) 101 % of control | dose: 400.0 mg/kg/injection, schedule: Q01DX Z (ip), vehicle: carboxymethylcellulose (CMC) 90 % of control

Oc1[nH]c(=S)sc1/C=C1\C=NN=N1
inactive: dose: 100.0 mg/kg/injection, schedule: Q01DX001 (ip), vehicle: other 108 % of control | dose: 200.0 mg/kg/injection, schedule: Q01DX001 (ip), vehicle: other 97 % of control | dose: 400.0 mg/kg/injection, schedule: Q01DX001 (ip), vehicle: other 101 % of control

CCCCNC(=O)NC(=O)CS(=O)(=O)c1ccc(C)cc1
inactive: dose: 100.0 mg/kg/injection, schedule: Q04DX003 (ip), vehicle: saline with Tween-80 95 % of control | dose: 200.0 mg/kg/injection, schedule: Q04DX003 (ip), vehicle: saline with Tween-80 95 % of control | dose: 400.0 mg/kg/injection, schedule: Q04DX003 (ip), vehicle: saline with Tween-80 93 % of control

O=C(C(F)F)C(F)F
inactive: dose: 50.0 mg/kg/injection, schedule: Q01DX009 (ip), vehicle: saline 91 % of control | [6] 91 % of control | [7] 106 % of control | [8] 104 % of control

CS(=O)(=O)/C=C\c1ccccc1
inactive: [7] 101 % of control | [8] 95 % of control | [9] 103 % of control

CCOC(=O)c1ccc(NC(=O)/C=C/c2ccccc2)cc1
inactive: dose: 100.0 mg/kg/injection, schedule: Q01DX009 (ip), vehicle: Klucel (hydroxypropylcellulose) (HPC) 97 % of control | dose: 200.0 mg/kg/injection, schedule: Q01DX009 (ip), vehicle: Klucel (hydroxypropylcellulose) (HPC) 95 % of control | dose: 400.0 mg/kg/injection, schedule: Q01DX009 (ip), vehicle: Klucel (hydroxypropylcellulose) (HPC) 97 % of control

NC(Cc1nccn1Cc1ccccc1)C(=O)O (configuration not stated)
inactive: dose: 75.0 mg/kg/injection, schedule: Q04DX002 (ip), vehicle: saline with Tween-80 104 % of control | dose: 150.0 mg/kg/injection, schedule: Q04DX002 (ip), vehicle: saline with Tween-80 112 % of control | dose: 300.0 mg/kg/injection, schedule: Q04DX002 (ip), vehicle: saline with Tween-80 119 % of control

CC(C)c1ccc(NC(=O)Nc2cc(Cl)ccc2Cl)cc1
inactive: dose: 100.0 mg/kg/injection, schedule: Q01DX009 (ip), vehicle: gum acacia 89 % of control | dose: 200.0 mg/kg/injection, schedule: Q04DX003 (ip), vehicle: gum acacia 89 % of control | dose: 400.0 mg/kg/injection, schedule: Q01DX009 (ip), vehicle: gum acacia 89 % of control | dose: 400.0 mg/kg/injection, schedule: Q04DX003 (ip), vehicle: gum acacia 87 % of control

From PubChem BioAssay AID248 (DTP/NCI, 2004)
